Key:
[1] = molecular target: RgNanA (RUMGNA_02692, sialic acid aldolase) (Mediterraneibacter gnavus, UniProt A7B555); assay: Sialic acid aldolase activity assay coupled to lactate dehydrogenase, RgNanA; details: 10 mM sialic acid, 37° C., pH 7.0, A340 nm
Description: The substrate specificity of RgNanA was determined using a coupled activity assay where pyruvate released during the conversion of sialic acid to ManNAc is converted to lactate by a lactate dehydrogenase and the subsequent loss of absorbance at 340 nm measured as NADH is converted to NAD^+. A commercially available E. coli sialic acid aldolase (EcNanA) was included as a control and enzymes were tested for activity against 2,7-anhydro-Neu5Ac and Neu5Ac. […] The kinetic parameters of RgNanA were determined by calculating the initial rate of reaction with increasing Neu5Ac concentrations. A Michaelis-Menten curve was fitted to the data and kinetic parameters determined (FIG. 7b).

[2] = molecular target: T1, E. coli sialic acid aldolase (EcNanA) (Escherichia coli, UniProt P0A6L4); assay: Sialic acid aldolase activity assay coupled to lactate dehydrogenase, EcNanA; format: biochemical; details: 10 mM sialic acid, 37° C., pH 7.0, A340 nm
T1 construct: purchased Carbosynth, UK CAS: 9027-60-5 (catalogue number not given)
Description: Aldolase cleavage was measured by monitoring the decrease in absorbance at 340 nm (A340 nm) as NADH is converted to NAD by lactate dehydrogenase in a coupled reaction where pyruvate is released from sialic acid by the aldolase. Reactions were performed in a 100 μl volume with final concentrations of 150 μM NADH (Sigma, St Louis, USA), 0.5 U LDH (Sigma, St Louis, USA), 10 mM sialic acid (Neu5Ac or 2,7-anhydro-Neu5Ac) and 1.5 μg purified RgNanA or EcNanA (E. coli aldolase CAS: 9027-60-5, Carbosynth, UK) in 50 mM Na-phosphate buffer (pH 7.0). The reactions were performed at 37° C. and monitored using FLUOstar OPTIMA (BMG LABTECH). For kinetics experiments, the sialic acid concentration was varied at 20, 10, 5, 4, 2, 1, 0.4, 0.2, 0.1 mM and the initial rate of reaction determined for each concentration in triplicate before analysis was performed by fitting the data to a Michaelis-Menten using Graph Pad Prism (V 5.03). […]
The first step of sialic acid metabolism is the conversion of sialic acid to ManNAc and pyruvate catalysed by a sialic acid aldolase (NanA). […] The substrate specificity of RgNanA was determined using a coupled activity assay where pyruvate released during the conversion of sialic acid to ManNAc is converted to lactate by a lactate dehydrogenase and the subsequent loss of absorbance at 340 nm measured as NADH is converted to NAD^+. […]

RgSBP = assay: Saturation transfer difference (STD) NMR with RgSBP; format: binding, R. gnavus ATCC 29149; details: RgSBP 50 μM with 2,7-anhydro-Neu5Ac 0.5 mM and Neu5Ac 1 mM
Description: An amicon centrifuge filter unit with a 10 kDa MW cut-off was used to exchange the protein in 25 mM d19-2,2-bis (hydroxymethyl)-2,2′,2″-nitrilotriethanol pH* 7.4 (uncorrected for the deuterium isotope effect on the pH glass electrode) D2O buffer and 50 mM NaCl. 2,7-anhydro-Neu5Ac and Neu5Ac were dissolved in 25 mM d19-2,2-bis(hydroxymethyl)-2,2′,2″-nitrilotriethanol pH* 7.4, 50 mM NaCl. Characterization of ligand binding by Saturation Transfer Difference NMR Spectroscopy (Mayer, M. and Meyer, B. (1999) was performed on a Bruker Avance 800.23 MHz at 298 K. The on- and off-resonance spectra were acquired using a train of 50 ms Gaussian selective saturation pulses using a variable saturation time from 0.5 s to 4 s, for binding epitope mapping determination while only 0.5 s of saturation time for each selected frequency was used to perform the DEEP-STD NMR experiments (Monaco et al., 2017). The water signal was suppressed by using the excitation sculpting technique (Hwang et al., 1995), while the remaining protein resonances were filtered using a T2 filter of 40 ms. All the spectra were performed with a spectral width of 10 KHz and 32768 data points using 256 or 512 scans. This time due to the absence of a 3D structure it was impossible to derive the resonances for saturation of aliphatic and aromatic residues found in the binding site as required by the DEEP-STD NMR technique. […]

T1 sequence (P0A6L4 whole entry): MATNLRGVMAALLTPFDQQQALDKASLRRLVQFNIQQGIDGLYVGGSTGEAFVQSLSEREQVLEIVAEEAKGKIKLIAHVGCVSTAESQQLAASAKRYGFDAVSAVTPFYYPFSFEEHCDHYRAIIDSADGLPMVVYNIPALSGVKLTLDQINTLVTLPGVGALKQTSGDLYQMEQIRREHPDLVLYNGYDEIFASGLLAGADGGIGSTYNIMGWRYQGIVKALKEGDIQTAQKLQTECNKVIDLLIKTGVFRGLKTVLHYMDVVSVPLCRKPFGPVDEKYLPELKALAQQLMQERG
RgNanA (RUMGNA_02692, sialic acid aldolase), sequence (A7B555 whole entry): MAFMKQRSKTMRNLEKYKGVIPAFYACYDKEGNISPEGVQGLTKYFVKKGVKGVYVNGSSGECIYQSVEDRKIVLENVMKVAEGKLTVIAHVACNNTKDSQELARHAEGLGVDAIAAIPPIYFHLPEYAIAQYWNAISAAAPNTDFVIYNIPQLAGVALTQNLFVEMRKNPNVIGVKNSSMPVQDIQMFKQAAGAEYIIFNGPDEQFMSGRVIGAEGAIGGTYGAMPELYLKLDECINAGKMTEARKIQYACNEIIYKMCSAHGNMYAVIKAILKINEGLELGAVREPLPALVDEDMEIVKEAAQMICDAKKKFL

| Compound | aldolase activity against substrate [1] | aldolase activity against substrate [2] | transfer of magnetization as saturation from the protein to the ligand (RgSBP) |
| --- | --- | --- | --- |
| CC(=O)N[C@H]1[C@H]([C@H](O)[C@H](O)CO)OC(O)(C(=O)O)C[C@@H]1O (stereo partly drawn) [Neu5Ac, N-acetylneuraminic acid] | showed activity | showed activity | complete absence of saturation transfer |
| CC(=O)N[C@H]1C2OC(C(=O)O)(C[C@@H]1O)O[C@@H]2[C@H](O)CO (stereo partly drawn) [2,7-anhydro-Neu5Ac] | neither enzyme showed activity | neither enzyme showed activity | clearly observed |
